For 19 molecules, IC50 and GI50 results are on record in patent publication US11414429B2, “Compound or pharmaceutically acceptable salt thereof” (RIKEN, priority 2016, dated 2022).

In one assay the target is T1, tankyrase 2 (TNKS 2) (Homo sapiens, UniProt Q9H2K2).
T1 construct: 613-1, 116aa; made in house; host or cells: cell-free protein synthesis system
As to the kind of experiment: Tankyrase inhibitory activity test (ELISA, self-polyADP ribosylation), tankyrase 2. The conditions noted are these: ELISA, self-polyADP ribosylation; class symbols; read-out: TNKS2 (inhibitory activity against tankyrase 2, IC50 value). The class given is biochemical. Put shortly: (§1)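 IC50 was fitted to residual self-polyADP-ribosylation activity, detected by HRP-streptavidin chemiluminescence. Plate-bound Flag fusions (TNKS1 1,024-1,327aa SAM+PARP; TNKS2 613-1,116aa ANK5+SAM+PARP, cell-free synthesized) saw compound for 10 min at room temperature in 50 mM Tris-HCl pH 8.0, 4 mM MgCl2, 0.2 mM DTT. Reaction with 225 μM NAD/25 μM 6-biotin-17-NAD solution ran 45 min at 30 °C.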
(In general: ELISA stands for enzyme-linked immunosorbent assay.)

Assay [1] relates to human colorectal cancer cell line, COLO-320DM. As to the kind of experiment: Cell proliferation inhibitory activity test (Celltiter-Glo Luminescent Cell Viability Assay). The conditions noted are these: COLO-320DM cells, 96 hours, class symbols, read-out: COLO-320 DM (cell proliferation inhibitory activity, GI50 value). The format is cell-based. Put shortly: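 GI50 is taken as the concentration halving cell growth versus 1% DMSO control, measured by ATP luminescence. Compound exposure lasted 96 h at 37° C. under 5% CO2, after overnight seeding in RPMI-1640 with 10% FBS and 2 mM glutamine.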
(ATP-based viability assays read luminescence as a measure of living cells.)

The target of a further assay is T2, tankyrase 1 (TNKS 1) (Homo sapiens, UniProt O95271).
T2 construct: 1,024-1,327aa; made in house; host or cells: cell-free protein synthesis system
T2 sequence (O95271 1024-1327): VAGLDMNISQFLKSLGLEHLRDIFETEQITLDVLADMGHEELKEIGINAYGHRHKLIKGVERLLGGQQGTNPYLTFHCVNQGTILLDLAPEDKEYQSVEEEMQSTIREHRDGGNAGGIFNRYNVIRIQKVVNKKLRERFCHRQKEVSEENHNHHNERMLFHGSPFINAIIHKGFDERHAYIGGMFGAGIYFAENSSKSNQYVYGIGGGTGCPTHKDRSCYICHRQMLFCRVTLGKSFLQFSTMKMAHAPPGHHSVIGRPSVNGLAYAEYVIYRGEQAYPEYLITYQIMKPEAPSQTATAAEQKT
As to the kind of experiment: Tankyrase inhibitory activity test (ELISA, self-polyADP ribosylation), tankyrase 1. The class given is biochemical. The conditions noted are these: ELISA, self-polyADP ribosylation; class symbols; read-out: TNKS1 (inhibitory activity against tankyrase 1, IC50 value). The method, boiled down: as §1

T1 sequence (Q9H2K2 613-1166): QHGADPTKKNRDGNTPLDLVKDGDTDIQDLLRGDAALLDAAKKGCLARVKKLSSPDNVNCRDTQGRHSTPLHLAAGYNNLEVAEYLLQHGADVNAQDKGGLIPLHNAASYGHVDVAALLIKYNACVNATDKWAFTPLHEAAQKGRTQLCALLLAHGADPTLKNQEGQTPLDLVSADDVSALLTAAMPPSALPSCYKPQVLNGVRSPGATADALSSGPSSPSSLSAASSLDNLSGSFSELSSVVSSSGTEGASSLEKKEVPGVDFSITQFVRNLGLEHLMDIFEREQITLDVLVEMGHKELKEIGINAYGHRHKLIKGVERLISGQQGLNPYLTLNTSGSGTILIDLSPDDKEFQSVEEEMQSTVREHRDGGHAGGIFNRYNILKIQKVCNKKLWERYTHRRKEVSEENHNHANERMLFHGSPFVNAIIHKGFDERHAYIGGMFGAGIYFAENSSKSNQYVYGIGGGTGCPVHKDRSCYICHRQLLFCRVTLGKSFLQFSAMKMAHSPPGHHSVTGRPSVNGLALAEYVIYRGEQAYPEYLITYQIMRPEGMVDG

As to `COc1ccc(Cl)c2c1N(CC(F)(F)F)C(=O)C21CCN(c2nc3c(c(=O)[nH]2)CCCN3)CC1` [Example 443, 4-chloro-1′-(4-hy-droxy-3,5,6,7,8-tetra-hydropyrido[2,3-d]pyrimidin-2-yl)-7-methoxy-1-(2,2,2-trifluoroeth-yl)spiro[indole-3,4′-piperidine]-2-one], the IC50 at tankyrase 2 (TNKS 2) and on tankyrase 1 (TNKS 1) was less than 20 nM throughout. Further, the GI50 in assay [1] fell in the range of 600 to 1000 nM.

Consider `CN1CCN(c2ccc(-c3cc(F)c4c(c3)C(=O)OC43CCN(c4nc5c(c(=O)[nH]4)CCCN5C)CC3)cc2)CC1` [Example 444, 4-fluoro-1′-(4-hy-droxy-8-methyl-6,7-dihydro-5H-pyrido [2,3-d]pyrimidin-2-yl)-6-[4-(4-meth-ylpiperazin-1-yl)phenyl]spiro[2-benzofuran-3,4′-piperidine]-1-one], for which the IC50 at tankyrase 2 (TNKS 2) and on tankyrase 1 (TNKS 1) was 20 to 200 nM in each case. In addition, the GI50 in assay [1] is 100 to 600 nM.

`COc1ccc(Cl)c2c1N(CCC(=O)N1CCn3c(C(F)(F)F)cnc3C1)C(=O)C21CCN(c2nc3c(c(=O)[nH]2)CCCN3C)CC1` [Example 445, 4-chloro-1′-(4-hy-droxy-8-methyl-6,7-dihdyro-5H-py-rido[2,3-d]pyrimi-din-2-yl)-7-meth-oxy-1-[3-oxo-3-[3-(trifluoromethyl)-6,8-dihydro-5H-imidazo[1,2-a]py-razin-7-yl]propyl] spiro[indole-3,4′-piperidine]-2-one]: the half-inhibitory concentration (IC50) at tankyrase 2 (TNKS 2) and on tankyrase 1 (TNKS 1) was less than 20 nM throughout. In assay [1], the GI50 was 100 to 600 nM.

For `COc1ccc(Cl)c2c1N(CC(C)(C)O)C(=O)C21CCN(c2nc3c(c(=O)[nH]2)CCCN3C)CC1` [Example 446, 4-chloro-1′-(4-hy-droxy-8-methyl-6,7-dihydro-5H-py-rido[2,3-d]pyrimi-din-2-yl)-1-(2-hy-droxy-2-methyl-propyl)-7-methoxy-spiro[indole-3,4′-piperidine]-2-one], the IC50 at tankyrase 2 (TNKS 2) and on tankyrase 1 (TNKS 1) was less than 20 nM throughout. Besides, the GI50 in assay [1] is less than 100 nM.

With `CN1CCCc2c1nc(N1CCC3(CC1)C(=O)N(CC(C)(C)O)c1cccc(F)c13)[nH]c2=O` [Example 447, 4-fluoro-1′-(4-hy-droxy-8-methyl-6,7-dihydro-5H-py-rido[2,3-d]pyrimidin-2-yl)-1-(2-hydroxy-2-methylpro-pyl)spiro[indole-3,4′-piperidine]-2-one], the IC50 at tankyrase 2 (TNKS 2) and at tankyrase 1 (TNKS 1) was less than 20 nM in each case. In addition, the GI50 in assay [1] is less than 100 nM.

Regarding `COc1ccc(Cl)c2c1N(CC(C)(C)O)C(=O)C21CCN(c2nc3c(c(=O)[nH]2)CCCN3)CC1` [Example 448], the IC50 at tankyrase 2 (TNKS 2) and at tankyrase 1 (TNKS 1) was less than 20 nM throughout. Further, in assay [1], the GI50 fell in the range of 100 to 600 nM.

Consider `CN(C)c1ccc(-c2cc(F)c3c(c2)C(=O)OC32CCN(c3nc4c(c(=O)[nH]3)CCCN4C)CC2)cc1` [Example 449, 6-[4-(dimethylami-no)phenyl]-4-fluoro-1′-(4-hydroxy-8-methyl-6,7-di-hydro-5H-pyrido[2,3-d]pyrimidin-2-yl)spiro[2-benzo-furan-3,4′-piperidine]-1-one], for which the IC50 at tankyrase 2 (TNKS 2) and on tankyrase 1 (TNKS 1) was 20 to 200 nM each time. For the same molecule, the GI50 in assay [1] lay within 100 to 600 nM.

In the case of `CN1CCCc2c1nc(N1CCC3(CC1)OC(=O)c1cc(-c4cnn(C)c4)cc(F)c13)[nH]c2=O` [Example 450, 4-fluoro-1′-(4-hy-droxy-8-methyl-6,7-dihydro-5H-py-rido[2,3-d]pyrimidin-2-yl)-6-(1-meth-ylpyrazol-4-yl)spiro [2-benzofuran-3,4′-piperidine]-1-one], the IC50 at tankyrase 2 (TNKS 2) and on tankyrase 1 (TNKS 1) was less than 20 nM each time. The GI50 in assay [1] is less than 100 nM.

Regarding `O=C1N(CC(F)(F)F)c2cccc(F)c2C12CCN(c1nc3c(c(=O)[nH]1)CCCN3)CC2` [Example 451, 4-fluoro-1′-(4-hy-droxy-5,6,7,8-tetra-hydropyrido[2,3-d]pyrimidin-2-yl)-1-(2,2,2-trifluoro-ethyl)spiro[indole-3,4′-piperidine]-2-one], the IC50 at tankyrase 2 (TNKS 2) and on tankyrase 1 (TNKS 1) was less than 20 nM throughout. The GI50 in assay [1] is 100 to 600 nM.

Regarding `CC(C)(O)CN1C(=O)C2(CCN(c3nc4c(c(=O)[nH]3)CCCN4)CC2)c2c(F)cccc21` [Example 452, 4-fluoro-1-(2-hy-droxy-2-methyl-propyl)-1′-(4-hydroxy-5,6,7,8-tetra-hydropyrido[2,3-d]pyrimidin-2-yl)spiro [indole-3,4′-piper-idine]-2-one], the IC50 – broadly, the midpoint of a concentration-inhibition curve – at tankyrase 2 (TNKS 2) is less than 20 nM; on tankyrase 1 (TNKS 1), 20 to 200 nM. In assay [1], the GI50 lay in the range of 100 to 600 nM.

`CNS(=O)(=O)COc1cc(F)c2c(c1)N(C)C(=O)C21CCN(c2nc3c(c(=O)[nH]2)CCCN3C)CC1` [Example 453, 1-{[4-fluoro-1-meth-yl-1′-(8-methyl-4-oxo-3,4,5,6,7,8-hexahydropyrido [2,3-d]pyrimidin-2-yl)-2-oxospiro [indole-3,4′-piperi-dine]-6-yl]oxy}-N-methylmethane sulfonamide]: the IC50 at tankyrase 2 (TNKS 2) and on tankyrase 1 (TNKS 1) was less than 20 nM each time. In addition, the GI50 in assay [1] fell in the range of 100 to 600 nM.

As to `CN1CCCc2c1nc(N1CCC3(CC1)C(=O)N(C)c1cc(OCS(N)(=O)=O)cc(F)c13)[nH]c2=O` [Example 454, 1-{[4-fluoro-1-meth-yl-1′-(8-methyl-4-oxo-3,4,5,6,7,8-hexahydropyrido [2,3-d]pyrimidin-2-yl)-2-oxospiro[indole-3,4′-piperidine]-6-yl]oxy}meth-anesulfonamide], the IC50 at tankyrase 2 (TNKS 2) and at tankyrase 1 (TNKS 1) was less than 20 nM in each case. In assay [1], the GI50 lay in the range of 100 to 600 nM.

Turning to `CN1CCCc2c1nc(N1CCC3(CC1)C(=O)N(C)c1cc(N4CCS(=O)(=O)CC4)cc(F)c13)[nH]c2=O` [Example 455, 6-(1,1-dioxdothio-morpholino)-4-fluoro-1-methyl-1′-(8-methyl-4-oxo-3,4,5,6,7,8-hexa-hydropyrido[2,3-d]pyrimidin-2-yl)spiro [indole-3,4′-piperi-dine]-2-one], the IC50 at tankyrase 2 (TNKS 2) and at tankyrase 1 (TNKS 1) was less than 20 nM each time. Further, the GI50 in assay [1] is 100 to 600 nM.

In the case of `CC(=O)NS(=O)(=O)COc1cc(F)c2c(c1)N(C)C(=O)C21CCN(c2nc3c(c(=O)[nH]2)CCCN3C)CC1` [Example 456, N-[[4-fluoro-1-meth-yl-1′-(8-methyl-4-oxo-3,4,5,6,7,8-hexahydropyrido [2,3-d]pyrimidin-2-yl)-2-oxospiro [indole-3,4′-piperi-dine]-6-yl]oxymeth-ylsulfonyl]aceta-mide], the IC50 at tankyrase 2 (TNKS 2) and on tankyrase 1 (TNKS 1) was less than 20 nM each time. In addition, the GI50 in assay [1] lay within 100 to 600 nM.

Turning to `CN1CCCc2c1nc(N1CCC3(CC1)C(=O)N(C)c1cc(N4CCNCC4)cc(F)c13)[nH]c2=O` [Example 457, 4-fluoro-1-methyl-1′-(8-methyl-4-oxo-3,4,5,6,7,8-hexahydropyrido [2,3-d]pyrimidin-2-yl)-6-piperazin-1-yl-spiro[indole-3,4′-piperidine]-2(1H)-one], the IC50 on tankyrase 2 (TNKS 2) and on tankyrase 1 (TNKS 1) was 20 to 200 nM in each case. Besides, in assay [1], the GI50 lay in the range of 600 to 1000 nM.

For the molecule `CN1CCCc2c1nc(N1CCC3(CC1)C(=O)N(C)c1cc(N4CCN(S(=O)(=O)N(C)C)CC4)cc(F)c13)[nH]c2=O` [Example 458, 4-[4-fluoro-1-meth-yl-1′-(8-methyl-4-oxo-3,4,5,6,7,8-hexahydropyrido [2,3-d]pyrimidin-2-yl)-2-oxospiro [indole-3,4′-piperi-dine]-6-yl]-N,N-di-methylpiperazine-1-sulfonamide], the IC50 at tankyrase 2 (TNKS 2) is less than 20 nM; on tankyrase 1 (TNKS 1) it was 20 to 200 nM. Further, the GI50 in assay [1] is 100 to 600 nM.

As to `CN1CCCc2c1nc(N1CCC3(CC1)C(=O)N(C)c1cc(N4CC(=O)N(Cc5ccccc5)C(=O)C4)cc(F)c13)[nH]c2=O` [Example 459, 1-benzyl-4-[4-fluoro-1-methyl-1′-(8-methyl-4-oxo-3,4,5,6,7,8-hexa-hydropyrido[2,3-d]pyrimidin-2-yl)-2-oxospiro[indole-3,4′-piperidine]-6-yl]piperazine-2,6-dione], the IC50 at tankyrase 2 (TNKS 2) and at tankyrase 1 (TNKS 1) was 20 to 200 nM in each case. Further, the GI50 in assay [1] is 100 to 600 nM.

Turning to `CN1CCCc2c1nc(N1CCC3(CC1)C(=O)N(C)c1cc(N4CCN(C(=O)CO)CC4)cc(F)c13)[nH]c2=O` [Example 460, 4-fluoro-6-[4-(2-hydroxyacetyl)piperazin-1-yl]-1-meth-yl-1′-(8-methyl-4-oxo-3,4,5,6,7,8-hexahydropyrido [2,3-d]pyrimidin-2-yl)spiro[indole-3,4′-piperidine]-2-one], the IC50 on tankyrase 2 (TNKS 2) and on tankyrase 1 (TNKS 1) was less than 20 nM each time. Also, the GI50 in assay [1] fell in the range of 100 to 600 nM.

As to `CN1CCCc2c1nc(N1CCC3(CC1)C(=O)N(C)c1cc(N4CCN(S(C)(=O)=O)CC4)cc(F)c13)[nH]c2=O` [Example 461, 4-fluoro-1-methyl-1′-(8-methyl-4-oxo-3,4,5,6,7,8-hexahydropyrido[2,3-d]pyrimidin-2-yl)-6-(4-methylsulfonylpiperazin-1-yl)spiro[indole-3,4′-piperidine]-2(1H)-one], the IC50 on tankyrase 2 (TNKS 2) and at tankyrase 1 (TNKS 1) was less than 20 nM in each case. Besides, the GI50 in assay [1] is less than 100 nM.
